These are literature values, as cited in patent US20100112105A1, “Antimicrobial efficacy of aframomum Melegueta extract against propionibacterium acnes” (ACCESS BUSINESS GROUP INTERNATIONAL LLC, priority 2008, published 2010).

The data set has as its system Mycobacterium chelonei, M. intracellulare, M. smegmatis, and M. xenopi. The following applies: Galal, Pharmaceutical Biology 1996.

Take `CCCCC/C=C/C(=O)CCc1ccc(O)c(OC)c1` [6-shogaol]: the activity against mycobacteria result is “active”.
For the compound `COc1cc(CCC(C)=O)ccc1O` [gingerone], the activity against mycobacteria result is “inactive”.
As for `CCCCCCCC(=O)CCc1ccc(O)c(OC)c1` [6-paradol], the activity against mycobacteria result is given as “active”.
